{"source": "paper PMC7854751", "about": "“Estimation of radiation dose from ingested tritium in humans by administration of deuterium-labelled compounds and food” (Scientific Reports, 2021)", "key": {"[1]": {"settings": "intravenous injection ref 28; cited from earlier work"}, "[2]": {"design": "method as in PMID 32424291", "settings": "cited from earlier work; for d1, ratio of organic compounds to inorganic compounds immediately after administration: 13C-labelled compound experiments, mean ± standard deviation ref 31"}, "[3]": {"test": "D/H ratios in urine after oral administration of D-labelled compounds and soybean, OBD metabolic model fit", "type": "in vivo, human", "method": "(§1) The total number of volunteers was 42, although some dropped out of the experiment, for various reasons. The data from these volunteers were eliminated. This study lasted 4 years; administration experiments were conducted from September to January, and each volunteer participated in one of the 4 years. […]\nAll D-labelled and ^13C-labelled compounds were purchased from Cambridge Isotopes, Inc. (Tewksbury). In each D-labelled molecule, hydrogen bound to carbon was uniformly replaced by D. Such D is not exchangeable to hydrogen in free body water after administration until it is metabolised to HDO, and is called non-exchangeable OBD (Nx-OBD). Exchangeable hydrogen, which was not bound to carbon, such as hydroxyl group hydrogen, was not replaced by D. In each ^13C-labelled compound, ^13C was uniformly labelled.\nThe D-labelled soybean was harvested three times. The harvested soybeans were boiled, freeze-dried, and then homogenised. The soy powder product was orally administered. To measure the D/H ratio, the soy powder was first immersed in drinking water, to replace exchangeable OBD (Ex-OBD), which was not bound to carbon. After the second freeze-drying process, the D/H ratio was measured using a mass spectrometer (Iso Prime 100; Elementar, Langenselbold, Germany). Buried tritium is defined as the tritium in a large biomolecule that remains in the molecule after rinsing samples with tritium-free water, despite its exchangeable position in the molecule. A fraction of buried deuterium was considered to remain in soybean powder. […] Therefore, we considered that effect of the amount of buried deuterium on the measured D/H ratio of soy powder was negligible. The hydrogen content of the soybean powders (gH/gDW) was measured using a gas chromatograph (NCH-22F; Sumika Chemical Analysis Service, Oosaka, Japan). The OBD content of the soybean powders (gOBD/gDW) were calculated from their D/H ratio and hydrogen content, and are summarised in Table 7.\n(§2) Urine and breath samples were periodically collected from days − 7 to 119, where the first day of the administration was defined as day 0. Urine samples were collected daily, when the volunteers rose in the morning, until day 28, then every two or three days until day 119. Additional samples were collected frequently, after administration. Urine samples were collected at every urination until bedtime, on days of administration. Breath samples were collected immediately prior to the administration, every 20 min from 12:30 to 17:10, and then hourly from 18:00 until bedtime.\n(§3) Urine was distilled, and the condensed water was collected for the measurement of D/H ratio, using a mass spectrometer (Iso Prime 100; Elementar, Langenselbold, Germany). Breath samples were collected using an airtight bag. The samples were analysed within 3 days. After purifying the CO2 in the breath using a gas chromatograph (MAT GC; Thermo Electron, Waltham, MA, USA), the ^13C/^12C ratio was measured using a mass spectrometer (Dalta V Advantage; Thermo Electron, Waltham, MA, USA).\n(§4) The increments were calculated of D/H and ^13C/^12C ratios above the background values measured for the samples before administration. The ratios were normalised to the same dosage (1 g D or ^13C per 70 kg body weight). When the D/H or ^13C/^12C ratios were below the limits (90% upper confidence limits of the background fluctuation), to cut off the data and any subsequent data were discarded.\n(§5) A metabolic model was developed, for each volunteer. For volunteers in the glucose, alanine, palmitic acid, and soybean groups, the model structure of the OBD shown in Fig. 1 was adopted, while for volunteers in the D2O group, the model structure for HDO was adopted. For each model, parameters were determined using the least squares method, using Microsoft Excel version 2007. The detailed procedures have been described previously. […]"}, "[4]": {"design": "method as in PMID 21947005", "settings": "once orally; individual volunteer; presumed value, no clear second component; from mean residence time of carbon in adipose tissue ref 41; cited from earlier work"}, "[5]": {"test": "D/H ratios in urine after oral administration of D2O, HDO metabolic model fit", "type": "in vivo, human", "settings": "for mean half-life for the FWD compartment of the HDO models: mean and standard deviation; for Rr, recovery ratio to the administered deuterium / k1, transfer rate from OBD compartment to FWD compartment / k2, transfer rate from FWD compartment to OBD compartment / ka, transfer rate from DT compartment to FWD compartment / ke, excretion rate from FWD compartment: once orally", "method": "as §1, §2, §3, §4, §5"}}, "note": "Values joined by “and” are separate entries in the source; they are usually repeats but may differ in a detail not shown here. Equal entries are not always repeated. Where two headings read alike, the source gives them in different places. Marks after values point to notes of the source that are not given here.", "data": [{"smiles": "O=[14C]([O-])O.[Na+]", "note": "[^14C-bicarbonate]", "values": [{"measurement": "half-life of carbon dioxide", "setting": "[1]", "value": 5, "unit": "min"}]}, {"smiles": "CCCCC/C=C\\C/C=C\\CCCCCCCC(=O)O", "note": "[^13C-labelled linoleic acid]", "values": [{"measurement": "d1, ratio of organic compounds to inorganic compounds immediately after administration", "setting": "[2]", "value": "0.29 ± 0.12"}, {"measurement": "reported ratio of unsaturated fatty acids (d1) by the 13C-labelled experiment", "setting": "[2]", "value": "29 ± 12", "unit": "%"}]}, {"smiles": "OC[C@H]1OC(O)[C@H](O)[C@@H](O)[C@@H]1O", "note": "(stereo partly drawn) [D-labelled glucose]", "values": [{"measurement": "ke, excretion rate from FWD compartment", "setting": "[3]; once orally, all volunteers average", "value": 0.073, "unit": "day⁻¹"}, {"measurement": "ke, excretion rate from FWD compartment", "setting": "[3]; once orally, female average", "value": 0.067, "unit": "day⁻¹"}, {"measurement": "ke, excretion rate from FWD compartment", "setting": "[3]; once orally, individual female volunteers", "value": "0.072 d^−1 (2×) and 0.081 d^−1 and 0.057 d^−1 and 0.073 d^−1 and 0.049 d^−1"}, {"measurement": "ke, excretion rate from FWD compartment", "setting": "[3]; once orally, individual male volunteers", "value": "0.085 d^−1 (2×) and 0.097 d^−1 and 0.050 d^−1 and 0.078 d^−1"}, {"measurement": "ke, excretion rate from FWD compartment", "setting": "[3]; once orally, male average", "value": 0.079, "unit": "day⁻¹"}]}, {"smiles": "CCCCCCCC/C=C\\CCCCCCCC(=O)O", "note": "[^13C-labelled oleic acid]", "values": [{"measurement": "d1, ratio of organic compounds to inorganic compounds immediately after administration", "setting": "[2]", "value": "0.35 ± 0.11"}, {"measurement": "reported ratio of unsaturated fatty acids (d1) by the 13C-labelled experiment", "setting": "[2]", "value": "35 ± 11", "unit": "%"}]}, {"smiles": "N[C@@H](Cc1ccccc1)C(=O)O", "note": "[^13C-labelled phenylalanine]", "values": [{"measurement": "d1, ratio of organic compounds to inorganic compounds immediately after administration", "setting": "[2]", "value": "0.25 ± 0.04"}]}, {"smiles": "[2H]O[2H]", "note": "[D2O]", "values": [{"measurement": "k2, transfer rate from FWD compartment to OBD compartment", "setting": "[4]", "value": "0.0017* d^−1"}, {"measurement": "mean half-life for the FWD compartment of the HDO models", "setting": "[5]; combined group of volunteers", "value": "240 ± 72", "unit": "h"}, {"measurement": "mean half-life for the FWD compartment of the HDO models", "setting": "[5]; females (n = 6)", "value": "240 ± 72", "unit": "h"}, {"measurement": "mean half-life for the FWD compartment of the HDO models", "setting": "[5]; males (n = 3)", "value": "240 ± 48", "unit": "h"}, {"measurement": "Rr, recovery ratio to the administered deuterium", "setting": "[5]; all volunteers average", "value": 0.93}, {"measurement": "k1, transfer rate from OBD compartment to FWD compartment", "setting": "[5]; all volunteers average", "value": 0.010, "unit": "day⁻¹"}, {"measurement": "k2, transfer rate from FWD compartment to OBD compartment", "setting": "[5]; all volunteers average", "value": 0.010, "unit": "day⁻¹"}, {"measurement": "ka, transfer rate from DT compartment to FWD compartment", "setting": "[5]; all volunteers average", "value": 26, "unit": "day⁻¹"}, {"measurement": "ke, excretion rate from FWD compartment", "setting": "[5]; all volunteers average", "value": 0.071, "unit": "day⁻¹"}, {"measurement": "Rr, recovery ratio to the administered deuterium", "setting": "[5]; female average", "value": 0.93}, {"measurement": "k1, transfer rate from OBD compartment to FWD compartment", "setting": "[5]; female average", "value": 0.011, "unit": "day⁻¹"}, {"measurement": "k2, transfer rate from FWD compartment to OBD compartment", "setting": "[5]; female average", "value": 0.013, "unit": "day⁻¹"}, {"measurement": "ka, transfer rate from DT compartment to FWD compartment", "setting": "[5]; female average", "value": 28, "unit": "day⁻¹"}, {"measurement": "ke, excretion rate from FWD compartment", "setting": "[5]; female average", "value": 0.071, "unit": "day⁻¹"}, {"measurement": "Rr, recovery ratio to the administered deuterium", "setting": "[5]; individual female volunteers", "value": "1.0 and 0.99 and 0.70 and 0.97 (2×) and 0.93"}, {"measurement": "k1, transfer rate from OBD compartment to FWD compartment", "setting": "[5]; individual female volunteers", "value": "0.0067 day⁻¹ and 0.0074 day⁻¹ and 0.019 day⁻¹"}, {"measurement": "k2, transfer rate from FWD compartment to OBD compartment", "setting": "[5]; individual female volunteers", "value": "0.016 day⁻¹ and 0.010 day⁻¹"}, {"measurement": "ka, transfer rate from DT compartment to FWD compartment", "setting": "[5]; individual female volunteers", "value": "8.9 day⁻¹ and 23 day⁻¹ and 92 day⁻¹ and 14 day⁻¹ and 6.4 day⁻¹ and 21 day⁻¹"}, {"measurement": "ke, excretion rate from FWD compartment", "setting": "[5]; individual female volunteers", "value": "0.056 day⁻¹ and 0.098 day⁻¹ and 0.081 day⁻¹ and 0.043 day⁻¹ and 0.078 day⁻¹ and 0.072 day⁻¹"}, {"measurement": "Rr, recovery ratio to the administered deuterium", "setting": "[5]; individual male volunteers", "value": "0.91 and 1.0 and 0.92"}, {"measurement": "k1, transfer rate from OBD compartment to FWD compartment", "setting": "[5]; individual male volunteers", "value": "0.0091 day⁻¹ and 0.0083 day⁻¹"}, {"measurement": "k2, transfer rate from FWD compartment to OBD compartment", "setting": "[5]; individual male volunteers", "value": "0.0092 day⁻¹ and 0.0065 day⁻¹"}, {"measurement": "ka, transfer rate from DT compartment to FWD compartment", "setting": "[5]; individual male volunteers", "value": "39 day⁻¹ and 8.6 day⁻¹ and 21 day⁻¹"}, {"measurement": "ke, excretion rate from FWD compartment", "setting": "[5]; individual male volunteers", "value": "0.059 day⁻¹ and 0.063 day⁻¹ and 0.090 day⁻¹"}, {"measurement": "Rr, recovery ratio to the administered deuterium", "setting": "[5]; male average", "value": 0.94}, {"measurement": "k1, transfer rate from OBD compartment to FWD compartment", "setting": "[5]; male average", "value": 0.0087, "unit": "day⁻¹"}, {"measurement": "k2, transfer rate from FWD compartment to OBD compartment", "setting": "[5]; male average", "value": 0.0079, "unit": "day⁻¹"}, {"measurement": "ka, transfer rate from DT compartment to FWD compartment", "setting": "[5]; male average", "value": 23, "unit": "day⁻¹"}, {"measurement": "ke, excretion rate from FWD compartment", "setting": "[5]; male average", "value": 0.071, "unit": "day⁻¹"}]}, {"smiles": "NCC(=O)O", "note": "[^13C-labelled glycine]", "values": [{"measurement": "d1, ratio of organic compounds to inorganic compounds immediately after administration", "setting": "[2]", "value": "0.29 ± 0.04"}]}, {"smiles": "CCCCCCCCCCCCCCCC(=O)O", "note": "[D-labelled palmitic acid]", "values": [{"measurement": "ke, excretion rate from FWD compartment", "setting": "[3]; palmitic acid group, orally once daily for four successive days, all volunteers average", "value": 0.070, "unit": "day⁻¹"}, {"measurement": "ke, excretion rate from FWD compartment", "setting": "[3]; palmitic acid group, orally once daily for four successive days, female average", "value": 0.083, "unit": "day⁻¹"}, {"measurement": "ke, excretion rate from FWD compartment", "setting": "[3]; palmitic acid group, orally once daily for four successive days, individual female volunteers", "value": "0.059 day⁻¹ and 0.064 day⁻¹ and 0.11 day⁻¹ and 0.099 day⁻¹"}, {"measurement": "ke, excretion rate from FWD compartment", "setting": "[3]; palmitic acid group, orally once daily for four successive days, individual male volunteers", "value": "0.059 day⁻¹ and 0.055 day⁻¹ and 0.078 day⁻¹ and 0.063 day⁻¹ and 0.040 day⁻¹"}, {"measurement": "ke, excretion rate from FWD compartment", "setting": "[3]; palmitic acid group, orally once daily for four successive days, male average", "value": 0.059, "unit": "day⁻¹"}]}]}
